# Values joined by “and” are separate entries in the source; they are usually repeats but may differ in a detail not shown here. Equal entries are not always repeated. Where two headings read alike, the source gives them in different places.
# Columns and labels:
# UO-31 = test: NCI sulforhodamine B assay; assay type: cell-based, human
# Description: (§1) These assays were carried out at the Developmental Therapeutics Program, Division of Cancer Treatment, National Cancer Institute (Bethesda, Md., U.S.A.). The method consists of incubating varying concentrations of the drug with an inoculum of cells for two days. […] The 57 cell lines included two mouse leukemia lines (P388 parental and adriamycin resistant) and […] human cell lines.
# (§2) It should be noted that the first two parameters (GI50 and TGI) relate to antiproliferation effects while the third one (LC50) indicates true cytotoxicity. A value of -4 or greater is considered to denote resistance (inactivity).
# HOP-92 = test: NCI sulforhodamine B assay; assay type: cell-based, human
# Description: as §1, §2
# OVCAR-5 = test: NCI sulforhodamine B assay; assay type: cell-based, human
# Description: as §1, §2
# RPMI-8226 = test: NCI sulforhodamine B assay; assay type: cell-based, human; conditions: 2880 min
# Description: as §1, §2
# SW-620 = test: NCI sulforhodamine B assay; assay type: cell-based, human; conditions: for GI50: Homo sapiens, read-out: Log10 GI50 (converted)
# Description: as §1, §2
# HCT-15 = test: NCI sulforhodamine B assay; assay type: cell-based, human; conditions: 2880 min
# Description: as §1, §2
# MCF-7 = test: NCI sulforhodamine B assay; assay type: cell-based, human
# Description: as §1, §2
# LOX-IMVI = test: NCI sulforhodamine B assay; assay type: cell-based, human
# Description: as §1, §2
# IGROV-1 = test: NCI sulforhodamine B assay; assay type: cell-based, human
# Description: as §1, §2
# SK-MEL-5 = test: NCI sulforhodamine B assay; assay type: cell-based, human
# Description: as §1, §2
# OVCAR-4 = test: NCI sulforhodamine B assay; assay type: cell-based, human
# Description: as §1, §2
# MCF-7/ADR = test: NCI sulforhodamine B assay; assay type: cell-based, human
# Description: as §1, §2
# NCl-H226 = test: NCI sulforhodamine B assay; assay type: cell-based, human
# Description: as §1, §2
# RXF-393L = test: NCI sulforhodamine B assay; assay type: cell-based, human
# Description: as §1, §2
# NCl-H460 = test: NCI sulforhodamine B assay; assay type: cell-based, human
# Description: as §1, §2
# EKVX = test: NCI sulforhodamine B assay; assay type: cell-based, human
# Description: as §1, §2
# MALMB-3M = test: NCI sulforhodamine B assay; assay type: cell-based, human
# Description: as §1, §2
# SN-12C = test: NCI sulforhodamine B assay; assay type: cell-based, human
# Description: as §1, §2
# Renal = conditions: renal cancer cell lines, 48 h
# [1] = Homo sapiens, 48 h, read-out: Log10 TGI (converted)
# [2] = Homo sapiens, read-out: Log10 GI50 (converted)
molecule,measurement,setting,value
"COC(=O)C1CC2=C(C(=O)c3c(cc4ccccc4c3O)C2=O)C(O[C@H]2C[C@H](NC(=O)C(F)(F)F)[C@H](O)[C@H](C)O2)O1 (mixture of isomers) [BCH-242, (1'S,1R,3S) and (1'S, 1S,3R)-Methyl[11-hydroxy-1-2',3',6'-trideoxy-3-trifluroacetamido-L-lyxohexopyranose)-5,12-dioxo-3,4,5,12-tetrahydroanthraceno[2,3-c]pyran-3-yl]formate]",Log10 GI50,UO-31,-5.62 log molar
same,Log10 LC50,UO-31; 2880 min,-4.77 log molar
same,Log10 LC50,"HOP-92; HOP-92, 2880 min",-5.36 log molar
same,CC50,"HOP-92; Homo sapiens, HOP-92, 48 h, read-out: Log10 LC50, HOP-92 (converted)",6.76 µM
same,IC100,"OVCAR-5; Homo sapiens, OVCAR-5, 48 h, OVCAR-5, read-out: Log10 TGI (converted)",3.47 µM
same,CC50,"OVCAR-5; Homo sapiens, OVCAR-5, 48 h, read-out: Log10 LC50, OVCAR-5 (converted)",5.89 µM
same,GI50,"OVCAR-5; Homo sapiens, OVCAR-5, OVCAR-5, read-out: Log10 GI50 (converted)",2 µM
same,Log10 GI50,OVCAR-5; OVCAR-5,-5.73 log molar
same,Log10 TGI,OVCAR-5; OVCAR-5,-5.49 log molar
same,Log10 LC50,"OVCAR-5; OVCAR-5, 2880 min",-5.24 log molar
same,Log10 LC50,RPMI-8226,-4.47 log molar
same,GI50,"SW-620; SW-620, SW-620",> 100 µM
same,GI50,SW-620; SW-620,1.32 µM
same,Log10 LC50,"SW-620; SW-620, 2880 min",-5.19 log molar
same,Log10 LC50,HCT-15,-5.38 log molar
same,CC50,"MCF-7; Homo sapiens, MCF7, 48 h, read-out: Log10 LC50, MCF-7 (converted)",5.37 µM
same,GI50,"MCF-7; Homo sapiens, MCF7, MCF-7; read-out: Log10 GI50 (converted)",0.324 µM
same,GI50,"MCF-7; Homo sapiens, MCF7; MCF-7; read-out: Log10 GI50 (converted)",1.55 µM
same,Log10 LC50,MCF-7; MCF-7; 2880 min,-5.38 log molar
same,CC50,"LOX-IMVI; Homo sapiens, LOX IMVI, 48 h, read-out: Log10 LC50, LOX-IMVI (converted)",5.75 µM
same,Log10 LC50,"LOX-IMVI; LOX-IMVI, 2880 min",-5.43 log molar
same,Log10 GI50,IGROV-1,-5.75 log molar
same,Log10 LC50,IGROV-1; 2880 min,-5.10 log molar
same,IC100,"SK-MEL-5; Homo sapiens, SK-MEL-5, 48 h, SK-MEL-5, read-out: Log10 TGI (converted)",2.82 µM
same,CC50,"SK-MEL-5; Homo sapiens, SK-MEL-5, 48 h, read-out: Log10 LC50, SK-MEL-5 (converted)",5.5 µM
same,Log10 TGI,SK-MEL-5; SK-MEL-5,-5.73 log molar
same,Log10 LC50,"SK-MEL-5; SK-MEL-5, 2880 min",-5.36 log molar
same,IC100,"OVCAR-4; Homo sapiens, OVCAR-4, 48 h, OVCAR-4, read-out: Log10 TGI (converted)",3.31 µM
same,CC50,"OVCAR-4; Homo sapiens, OVCAR-4, 48 h, read-out: Log10 LC50, OVCAR-4 (converted)",6.03 µM
same,Log10 GI50,OVCAR-4; OVCAR-4,-5.94 log molar
same,Log10 TGI,OVCAR-4; OVCAR-4,-5.63 log molar
same,Log10 LC50,"OVCAR-4; OVCAR-4, 2880 min",-5.31 log molar
same,CC50,"MCF-7/ADR; Homo sapiens, NCI/ADR-RES, 48 h, read-out: Log10 LC50, MCF-7/ADR (converted)",7.08 µM
same,Log10 LC50,"MCF-7/ADR; MCF-7/ADR, 2880 min",-5.15 log molar and -5.40 log molar
same,Log10 GI50,NCl-H226,-5.71 log molar
same,Log10 TGI,NCl-H226,-5.44 log molar
same,IC100,NCl-H226; [1],6.61 µM
same,GI50,NCl-H226; [2],2.75 µM
same,IC100,"RXF-393L; Homo sapiens, 48 h, RXF-393L, read-out: Log10 TGI (converted)",2.63 µM
same,CC50,"RXF-393L; Homo sapiens, 48 h, read-out: Log10 LC50, RXF-393L (converted)",5.37 µM
same,GI50,"RXF-393L; Homo sapiens, RXF-393L, read-out: Log10 GI50 (converted)",1.29 µM
same,Log10 GI50,RXF-393L; RXF-393L,-6.05 log molar
same,Log10 TGI,RXF-393L; RXF-393L,-5.67 log molar
same,Log10 LC50,"RXF-393L; RXF-393L, 2880 min",-5.32 log molar
same,IC100,"NCl-H460; Homo sapiens, 48 h, NCl-H460, read-out: Log10 TGI (converted)",3.98 µM
same,CC50,"NCl-H460; Homo sapiens, NCI-H460, 48 h, read-out: Log10 LC50, NCl-H460 (converted)",8.13 µM
same,Log10 TGI,NCl-H460; NCl-H460,-5.70 log molar
same,Log10 LC50,"NCl-H460; NCl-H460, 2880 min",-5.33 log molar
same,Log10 GI50,EKVX,-5.83 log molar
same,Log10 LC50,EKVX; 2880 min,-5.27 log molar
same,CC50,"EKVX; Homo sapiens, 48 h, read-out: Log10 LC50, EKVX (converted)",6.31 µM
same,IC100,EKVX; [1],3.39 µM
same,GI50,EKVX; [2],1.78 µM
same,IC100,"MALMB-3M; Homo sapiens, 48 h, MALMB-3M, read-out: Log10 TGI (converted)",3.24 µM
same,CC50,"MALMB-3M; Homo sapiens, 48 h, read-out: Log10 LC50, MALMB-3M (converted)",5.75 µM
same,GI50,"MALMB-3M; Homo sapiens, MALMB-3M, read-out: Log10 GI50 (converted)",1.78 µM
same,Log10 GI50,MALMB-3M; MALMB-3M,-6.02 log molar
same,Log10 TGI,MALMB-3M; MALMB-3M,-5.67 log molar
same,Log10 LC50,"MALMB-3M; MALMB-3M, 2880 min",-5.33 log molar
same,IC100,"SN-12C; Homo sapiens, SN12C, 48 h, SN-12C, read-out: Log10 TGI (converted)",3.02 µM
same,CC50,"SN-12C; Homo sapiens, SN12C, 48 h, read-out: Log10 LC50, SN-12C (converted)",5.5 µM
same,GI50,"SN-12C; Homo sapiens, SN12C, SN-12C, read-out: Log10 GI50 (converted)",1.62 µM
same,Log10 GI50,SN-12C; SN-12C,-5.94 log molar
same,Log10 TGI,SN-12C; SN-12C,-5.62 log molar
same,Log10 LC50,"SN-12C; SN-12C, 2880 min",-5.31 log molar
"Methyl(11-hydroxy-5,12-dioxo-3,4,5,12-tetrahydroanthraceno[2,3-c]pyran-3-yl)ketone and Methyl(5-hydroxy-5,12-dioxo-3,4,5,12-tetrahydroanthraceno[2,3-c]pyran-3-yl)ketone [BCH-687]",Average LOG10 LC50,Renal,> -4.21 log molar
